Data: patent US20220089602A1, “COMPOUNDS THAT INDUCE FERROPTIC CELL DEATH” (The Board of Trustees of the University of Illinois, priority 2019, published 2022)

Test system: HCT 116 cells
Experiment: In-gel fluorescence proteome labeling
Format: cell-based
Conditions: 30 min dose-dependent treatment
Method: Cells were harvested by centrifugation (500×g, 3 min), washed with PBS, and resuspended in RIPA lysis buffer (50 mM Tris, 150 mM NaCl, 1% Triton X-100, 0.5% sodium deoxycholate, 0.1% SDS, pH=7.4) containing 1× protease inhibitor cocktail on ice. Protein concentration was determined by the Bradford assay and lysates were stored at −20° C. until further use. Samples were resolved in a 4-20% SDS-PAGE gel (Bio-Rad) at 120 V for 70 min. After PBS washes, each gel was scanned for fluorescence signal using a Molecular Dynamics Typhoon 9400 Multilaser Scanner at the Proteomics Center at UIUC (excitation at 526 nm, green laser, high sensitivity, 530 pmt). Gels were then treated with Coomassie Blue stain (Imperial Stain, ThermoFisher) via shaking for 45 min to stain for the total protein content. Upon proteome labeling, gels were destained for 15 min-overnight on MilliQ H2O followed by imaging in a Gel Dox XR+ from Bio-Rad (ex. 470 nm, UV High filter).

For `CC1=CC(C)=[N+]2C1=Cc1ccc(CCC(=O)NCCCn3cc(CN4C(=O)C5CC=C([C@@H]6C[C@@H](OC(=O)CI)[C@]7(C)[C@H](C)CC[C@]8(C[C@H](O)C(=O)[C@]87O)[C@H]6C)CC5C4=O)nn3)n1[B-]2(F)F` (stereo partly shown) [Compound P31], which proteome labeling selectivity is on record?
Its proteome labeling selectivity is “Promiscuous bioactivity”.
